Patent US20070178532A1 (priority 2003, published 2007)

Assays:
[1] = tested on: tetramer-positive T cells from PBMC of HAM/TSP patients; assay: CD27 and CD45RA expression in HLA-GFP-acquiring tetramer-positive T cells after peptide presentation by HmyA2GFP cells; type: cell-based, human
[2] = tested on: tetramer-positive T cells from PBMC of HAM/TSP patients; assay: intracellular perforin staining of tetramer-positive T cells (FACS); type: cell-based, human
Description: The above-described phenotypically defined T cell populations were further characterized with respect to perforin expression and cytolytic activity. For intracellular perforin staining, cells were fixed and permeabilization with Cytofix/CytoPerm kit (BD Pharmingen), and stained with monoclonal antibody specific for perforin (BD Pharmingen). The cells were subjected to further FACS analysis and the resulting data was analyzed with Cellquest software (Becton Dickinson) to obtain the mean fluorescence intensity (MFI) for the cell populations.

PBMCs = assay: peptide loaded HLA-A*201 tetramer analysis of PBMCs (FACS); conditions: PBMC of HAM/TSP patient #5
CD8+ T cells in PBMCs = assay: HLA-GFP acquisition by CD8+ T cells in PBMCs mixed with peptide-pulsed HmyA2GFP cells (FACS); conditions: PBMC of HAM/TSP patient #5
[3] = CMV tetramer-positive cells, After contact with HmyA2GFP cells (1 hour)
[4] = HLA-GFP-acquiring tetramer-positive cells after stimulation with peptide-pulsed HmyA2GFP cells

For NLVPMVATV [CMV pp65], which “% CD27+ CD4SRA−” value [1, 3] is on record?
The value was 2.51%.

What about the “% CD27+ CD45RA+” value [1, 3] of the same sequence?
The value was 3.05%.

And the “% CD27− CD45RA+” value [1, 3]?
Its value is 42.625%.

And the “% CD27− CD45RA−” value [1, 3]?
Its value is 51.813%.

And the “change of CD27+CD45RA− (memory) subset” value [1, 4]?
The value was “concomitant decrease”.

And the “change of CD27-CD45+ (effector) subset” value [1, 4]?
The value was “no significant change”.

And the “change of CD27-CD45RA− (effector/memory) subset” value [1, 4]?
Its value is “significant increase”.

And the “Perforin Expression Levels (in MFI)” value ([2]; HLA acquiring CMV tetramer-positive cells)?
The value was 9.543 MFI.

And the “change in the amount of perforin in virus-specific T cells after peptide stimulation” value ([2]; after stimulation with peptide-pulsed HmyA2GFP cells)?
The value was “significant decrease”.

What about the “peptide-specific T cells in the PBMCs by tetramer” value (PBMCs) of the same sequence?
Its value is 6.57%.

And the “frequency of peptide-specific T cells in the PBMC population by the inventive method” value (CD8+ T cells in PBMCs)?
Its value is 6.34%.
